Activity calls are given as the source filed them. The calls are words filed in the database; no cut-off is given here.
Legend:
[1] = Selectivity ratio for agonist activity at THRalpha LBD (unknown origin) transiently transfected in HEK293T cells to agonist activity at human Nur77 LBD transiently transfected in HEK293T cells; type: cell-based
[2] = target: Nuclear receptor subfamily 4 group A member 3 (Homo sapiens, UniProt Q92570); experiment: Agonist activity at human NOR-1 LBD transiently transfected in HEK293T cells assessed as maximal activation incubated for 16 hrs by Gal4-hybrid reporter gene based Dual-glo luciferase assay relative to control; type: cell-based; settings: filed as agonist
Chain of Nuclear receptor subfamily 4 group A member 3 (Q92570 whole entry, the tested form may be a part): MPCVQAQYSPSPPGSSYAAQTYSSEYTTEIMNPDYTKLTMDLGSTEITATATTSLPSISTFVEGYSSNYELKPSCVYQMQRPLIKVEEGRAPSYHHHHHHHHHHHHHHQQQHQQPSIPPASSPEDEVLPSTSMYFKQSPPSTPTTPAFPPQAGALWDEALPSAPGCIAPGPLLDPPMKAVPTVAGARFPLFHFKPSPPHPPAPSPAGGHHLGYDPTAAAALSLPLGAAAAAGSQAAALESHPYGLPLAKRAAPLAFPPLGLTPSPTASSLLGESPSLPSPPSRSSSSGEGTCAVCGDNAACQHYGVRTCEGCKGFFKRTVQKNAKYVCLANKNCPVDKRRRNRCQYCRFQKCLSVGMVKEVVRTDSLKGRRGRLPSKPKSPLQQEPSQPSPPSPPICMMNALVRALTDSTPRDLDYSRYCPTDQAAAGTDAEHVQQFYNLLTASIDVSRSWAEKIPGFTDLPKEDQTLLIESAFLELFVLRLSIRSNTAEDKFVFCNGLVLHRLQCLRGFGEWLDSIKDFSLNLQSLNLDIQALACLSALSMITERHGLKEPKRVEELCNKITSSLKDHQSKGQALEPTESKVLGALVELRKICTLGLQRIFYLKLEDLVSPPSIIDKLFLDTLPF

[3] = target: T1, Thyroid hormone receptor alpha (Homo sapiens) (UniProt P10827); experiment: Agonist activity at THRalpha LBD (unknown origin) transiently transfected in HEK293T cells at 1 uM incubated for 16 hrs by Gal4-hybrid reporter gene based Dual-glo luciferase assay; type: cell-based
T1 sequence (whole entry): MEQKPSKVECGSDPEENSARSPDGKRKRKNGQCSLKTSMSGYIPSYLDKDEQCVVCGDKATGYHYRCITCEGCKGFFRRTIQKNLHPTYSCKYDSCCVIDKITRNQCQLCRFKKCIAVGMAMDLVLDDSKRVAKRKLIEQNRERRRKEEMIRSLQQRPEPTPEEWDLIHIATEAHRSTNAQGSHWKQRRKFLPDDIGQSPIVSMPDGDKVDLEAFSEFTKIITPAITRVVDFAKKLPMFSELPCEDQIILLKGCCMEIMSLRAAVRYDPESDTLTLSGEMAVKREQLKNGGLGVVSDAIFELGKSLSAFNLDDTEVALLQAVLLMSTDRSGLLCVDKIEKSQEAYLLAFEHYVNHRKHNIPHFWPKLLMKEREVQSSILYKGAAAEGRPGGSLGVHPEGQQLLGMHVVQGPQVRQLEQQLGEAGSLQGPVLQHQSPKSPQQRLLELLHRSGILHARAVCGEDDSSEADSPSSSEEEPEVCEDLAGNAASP

[4] = Selectivity ratio for agonist activity at PPARdelta LBD (unknown origin) transiently transfected in HEK293T cells to agonist activity at human NOR-1 LBD transiently transfected in HEK293T cells; type: cell-based
[5] = Selectivity ratio for agonist activity at RARalpha LBD (unknown origin) transiently transfected in HEK293T cells to agonist activity at human Nurr1 LBD transiently transfected in HEK293T cells; type: cell-based
[6] = target: T2, Vitamin D3 receptor (Homo sapiens) (UniProt P11473); experiment: Agonist activity at VDR LBD (unknown origin) transiently transfected in HEK293T cells at 1 uM incubated for 16 hrs by Gal4-hybrid reporter gene based Dual-glo luciferase assay; type: cell-based
T2 sequence (whole entry): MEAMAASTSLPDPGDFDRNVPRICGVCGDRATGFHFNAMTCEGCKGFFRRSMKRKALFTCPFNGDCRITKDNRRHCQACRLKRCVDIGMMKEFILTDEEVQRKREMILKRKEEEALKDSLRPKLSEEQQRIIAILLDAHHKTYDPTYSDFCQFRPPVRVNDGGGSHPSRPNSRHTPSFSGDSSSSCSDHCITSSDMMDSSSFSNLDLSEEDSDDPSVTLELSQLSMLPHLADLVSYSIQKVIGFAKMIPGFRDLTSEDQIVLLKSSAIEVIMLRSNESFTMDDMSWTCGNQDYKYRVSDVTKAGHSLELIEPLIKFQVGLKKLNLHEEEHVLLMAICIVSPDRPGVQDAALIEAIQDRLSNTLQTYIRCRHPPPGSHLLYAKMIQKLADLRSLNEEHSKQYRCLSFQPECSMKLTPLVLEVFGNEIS

[7] = target: T3, Nuclear receptor subfamily 4 group A member 2 (Homo sapiens, UniProt P43354); experiment: Agonist activity at full length human Nurr1 transiently transfected in HEK293T cells co-transfected with pFR-Luc-NBRE incubated for 16 hrs by Gal4-hybrid reporter gene based Dual-glo luciferase assay; type: cell-based
T3 sequence (P43354 whole entry, the tested form may be a part): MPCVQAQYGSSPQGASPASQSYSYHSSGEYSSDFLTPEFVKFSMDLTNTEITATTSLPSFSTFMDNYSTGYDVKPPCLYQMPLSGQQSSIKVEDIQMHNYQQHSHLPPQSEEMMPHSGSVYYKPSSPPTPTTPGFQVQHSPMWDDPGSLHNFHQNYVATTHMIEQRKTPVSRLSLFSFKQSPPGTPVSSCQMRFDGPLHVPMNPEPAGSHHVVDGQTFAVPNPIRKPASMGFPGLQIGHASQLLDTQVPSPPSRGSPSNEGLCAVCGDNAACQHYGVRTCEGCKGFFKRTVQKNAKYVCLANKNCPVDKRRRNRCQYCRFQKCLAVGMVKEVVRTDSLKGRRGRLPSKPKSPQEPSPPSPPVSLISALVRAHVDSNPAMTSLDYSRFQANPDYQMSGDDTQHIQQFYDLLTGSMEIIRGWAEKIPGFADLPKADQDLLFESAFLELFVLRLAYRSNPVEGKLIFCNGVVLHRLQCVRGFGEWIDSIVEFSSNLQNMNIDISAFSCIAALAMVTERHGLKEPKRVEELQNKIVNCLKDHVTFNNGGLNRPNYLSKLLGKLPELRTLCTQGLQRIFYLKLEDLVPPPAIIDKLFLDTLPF

[8] = target: T3, Nuclear receptor subfamily 4 group A member 2; experiment: Agonist activity at full length human Nurr1 transiently transfected in HEK293T cells co-transfected with pFR-Luc-DR5 incubated for 16 hrs by Gal4-hybrid reporter gene based Dual-glo luciferase assay; type: cell-based
[9] = Selectivity ratio for agonist activity at VDR LBD (unknown origin) transiently transfected in HEK293T cells to agonist activity at human Nurr1 LBD transiently transfected in HEK293T cells; type: cell-based
[10] = Selectivity ratio for agonist activity at PPARalpha LBD (unknown origin) transiently transfected in HEK293T cells to agonist activity at human Nurr1 LBD transiently transfected in HEK293T cells; type: cell-based
[11] = target: T3, Nuclear receptor subfamily 4 group A member 2; settings: filed as agonist, dose 100.0 µM
[12] = target: T3, Nuclear receptor subfamily 4 group A member 2; experiment: Agonist activity at full length human Nurr1 transiently transfected in HEK293T cells co-transfected with pFR-Luc-NurRE incubated for 16 hrs by Gal4-hybrid reporter gene based Dual-glo luciferase assay; type: cell-based
[13] = Selectivity ratio for agonist activity at PPARdelta LBD (unknown origin) transiently transfected in HEK293T cells to agonist activity at human Nur77 LBD transiently transfected in HEK293T cells; type: cell-based
[14] = target: Nuclear receptor subfamily 4immunitygroup A member 1 (Homo sapiens, UniProt P22736); experiment: Agonist activity at human Nur77 LBD transiently transfected in HEK293T cells incubated for 16 hrs by Gal4-hybrid reporter gene based Dual-glo luciferase assay; type: cell-based
Chain of Nuclear receptor subfamily 4immunitygroup A member 1 (P22736 whole entry, the tested form may be a part): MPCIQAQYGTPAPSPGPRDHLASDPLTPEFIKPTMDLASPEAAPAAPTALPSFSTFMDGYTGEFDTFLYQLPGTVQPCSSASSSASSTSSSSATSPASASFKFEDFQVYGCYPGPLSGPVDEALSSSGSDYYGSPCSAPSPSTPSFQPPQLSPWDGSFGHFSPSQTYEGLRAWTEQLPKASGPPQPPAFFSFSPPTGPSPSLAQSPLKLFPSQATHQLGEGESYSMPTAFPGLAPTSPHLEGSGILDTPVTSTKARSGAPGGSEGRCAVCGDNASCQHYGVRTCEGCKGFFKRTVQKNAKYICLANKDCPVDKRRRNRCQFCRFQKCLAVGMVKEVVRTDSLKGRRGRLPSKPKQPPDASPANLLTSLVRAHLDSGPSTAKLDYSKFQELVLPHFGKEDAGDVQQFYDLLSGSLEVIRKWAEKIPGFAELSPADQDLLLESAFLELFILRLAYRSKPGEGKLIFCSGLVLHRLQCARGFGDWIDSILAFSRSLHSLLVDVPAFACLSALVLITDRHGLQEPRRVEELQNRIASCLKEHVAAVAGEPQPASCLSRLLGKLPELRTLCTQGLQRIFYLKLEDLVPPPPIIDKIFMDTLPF

[15] = Selectivity ratio for agonist activity at FXR LBD (unknown origin) transiently transfected in HEK293T cells to agonist activity at human Nur77 LBD transiently transfected in HEK293T cells; type: cell-based

- Emax [2]: 185%
- Activity [3]: inactive
- Activity [6]: inactive
- EC50 [7]: 13 nM
- EC50 [8]: 12 nM
- deltaH [11]: -4 kcal/mol
- EC50 [12]: 10 nM
- EC50 [14]: 140 nM
Structure (SMILES): CC(C)(C)c1ccc(COc2cccc(C(=O)O)c2)cc1
- Selectivity ratio [1]: > 30
- Selectivity ratio [4]: > 30
- Selectivity ratio [5]: > 30
- Selectivity ratio [9]: > 30
- Selectivity ratio [10]: > 30
- Selectivity ratio [13]: > 30
- Selectivity ratio [15]: > 30

From ChEMBL document CHEMBL5390264, “Exploring Fatty Acid Mimetics as NR4A Ligands” (J Med Chem, 2023)
